Test results as given in patent publication US20060276416A1, “Methods and compositions for treating flushing and drug induced weight gain” (Sirtris Pharmaceuticals, Inc., priority 2005, published 2006).
Entries after “also recorded” stand apart in the source; their conditions may differ.

Tests used:
[1] = molecular target: T1, SIRT1 deacetylase (BIOMOL) (Homo sapiens, UniProt Q96EB6); assay: High-throughput SIRT1 screening protocol (Fluor de Lys-SIRT1, 384 well); assay type: biochemical; settings: positive controls; roughly 50 μM, 200 μM NAD+, 5 μM Fluor de Lys-SIRT1
T1 construct: purchased BIOMOL
T1 sequence (Q96EB6 1-747): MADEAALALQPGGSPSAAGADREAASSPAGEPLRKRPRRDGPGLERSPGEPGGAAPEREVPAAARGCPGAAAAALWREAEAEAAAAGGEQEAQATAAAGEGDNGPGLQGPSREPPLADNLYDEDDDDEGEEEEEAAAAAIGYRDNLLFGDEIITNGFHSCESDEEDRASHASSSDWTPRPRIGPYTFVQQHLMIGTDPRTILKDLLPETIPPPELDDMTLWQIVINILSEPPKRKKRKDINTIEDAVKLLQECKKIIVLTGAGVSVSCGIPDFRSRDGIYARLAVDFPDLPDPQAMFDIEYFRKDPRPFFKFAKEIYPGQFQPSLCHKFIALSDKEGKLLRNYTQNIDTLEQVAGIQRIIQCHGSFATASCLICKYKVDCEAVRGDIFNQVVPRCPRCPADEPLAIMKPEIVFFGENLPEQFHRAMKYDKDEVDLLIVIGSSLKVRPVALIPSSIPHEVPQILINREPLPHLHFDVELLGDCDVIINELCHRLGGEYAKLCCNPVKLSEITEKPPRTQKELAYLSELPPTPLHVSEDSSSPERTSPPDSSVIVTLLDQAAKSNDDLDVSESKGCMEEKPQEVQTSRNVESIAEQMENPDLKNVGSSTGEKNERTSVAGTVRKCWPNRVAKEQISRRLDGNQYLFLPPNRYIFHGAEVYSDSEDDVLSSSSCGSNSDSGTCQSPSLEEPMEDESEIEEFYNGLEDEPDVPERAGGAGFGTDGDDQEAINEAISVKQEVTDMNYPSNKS
Experimental: The reaction mixture contains (final): 0.5 units/reaction SIRT1 deacetylase (BIOMOL); 200 μM NAD^+; 5 μM Fluor de Lys-SIRT1 substrate (BIOMOL); buffer (25 mM Tris/Cl, pH 8.0, 137 mM NaCl, 2.7 mM KCl, 1 mM MgCl2, and 1 mg/ml BSA). In addition, a reaction mixture containing no enzyme was made so that each well receiving compound has a corresponding “no enzyme control” well. Reactions were performed in black 384 well plates (NUNC) in a final volume of 25 μl/well.
The reactions were started by combining enzyme and substrate in a reaction mixture immediately prior to aliquoting in plates (or substrate only for “no enzyme control” plates). Mixture were aliquoted to plates using Biotek μFill (Biotek Instruments). Control mixtures were manually added to designated wells. A library compound was added at a desired concentration by pin transfer to both “with enzyme” and “no enzyme” plates. Compounds were added in at least triplicate (with enzyme reaction in duplicate and no enzyme controls) at a final concentration of roughly 50 μM. The plates were incubated at 37° C. for 30-60 minutes. Then 25 μl of 1× Developer II (BIOMOL) plus 2 mM nicotinamide were added to all wells to stop the reactions. The reactions were left for at least 30 minutes at 37° C. for the signal to develop. The plates were read in a microplate-reading fluorometer capable of excitation at a wavelength in the range of 350-380 nm and detection of emitted light in the range of 440-460 nm. A read time of 0.1 sec per well was used.

[2] = test system: TNF-alpha treated adipocytes; assay: Radioactive glucose uptake in TNF-alpha treated insulin resistant adipocytes; assay type: cell-based; settings: resveratrol 5 μM or 15 μM; roziglitazone 4 μM
NIH3T3 cells = assay: Adipocyte differentiation and fat content, Oil Red O; assay type: cell-based; settings: 10 days of differentiation
Experimental: (§1) After 10 days of differentiation, cells were fixed and stained with Oil red O. Oil red 0 was extracted from stained cells and quantified by measuring absorbance at 520 nm. B. Oil red 0 quantitation is shown as fold change relative to the 3T3-L1 sample treated with 0 μM resvratrol.
(§2) After 10 days of differentiation, fat content was assessed by Oil Red O staining, as described below. […] The results in NIH3T3 cells confirm the results obtained in C. elegans.
(§3) 3T3-L1 and NIH3T3 cells were maintained in DMEM plus 10% calf serum. Adipocyte differentiation of 3T3-L1 cells was performed as described previously (MacDougald, O. A. and Lane, M. D. (1995). Transcriptional regulation of gene expression during adipocyte differentiation. Annu. Rev. Biochem. 64, 345-373). NIH3T3 cells were induced to form adipocytes under the same conditions as 3T3-L1 cells, but with 6 days of treatment with insulin, dexamethasone, and isobutylmethylxanthine in 10% fetal calf serum after cells reach confluence. The staining of adipocytes with Oil Red-O and quantitation was performed as described previously (Ramirez-Zacarias J L, Castro-Munozledo F, Kuri-Harcuch W. Histochemistry. 1992 97(6): 493-7).

3T3-L1 cells = assay: as above; assay type: cell-based
Experimental: as §1, §2, §3

recombinant SIR-2.1 = recombinant SIR-2.1 (Caenorhabditis elegans, UniProt Q21921); assay: SIR-2.1 deacetylation assay (Fluor de Lys); assay type: biochemical, C. elegans
recombinant SIR-2.1, sequence (Q21921 whole entry): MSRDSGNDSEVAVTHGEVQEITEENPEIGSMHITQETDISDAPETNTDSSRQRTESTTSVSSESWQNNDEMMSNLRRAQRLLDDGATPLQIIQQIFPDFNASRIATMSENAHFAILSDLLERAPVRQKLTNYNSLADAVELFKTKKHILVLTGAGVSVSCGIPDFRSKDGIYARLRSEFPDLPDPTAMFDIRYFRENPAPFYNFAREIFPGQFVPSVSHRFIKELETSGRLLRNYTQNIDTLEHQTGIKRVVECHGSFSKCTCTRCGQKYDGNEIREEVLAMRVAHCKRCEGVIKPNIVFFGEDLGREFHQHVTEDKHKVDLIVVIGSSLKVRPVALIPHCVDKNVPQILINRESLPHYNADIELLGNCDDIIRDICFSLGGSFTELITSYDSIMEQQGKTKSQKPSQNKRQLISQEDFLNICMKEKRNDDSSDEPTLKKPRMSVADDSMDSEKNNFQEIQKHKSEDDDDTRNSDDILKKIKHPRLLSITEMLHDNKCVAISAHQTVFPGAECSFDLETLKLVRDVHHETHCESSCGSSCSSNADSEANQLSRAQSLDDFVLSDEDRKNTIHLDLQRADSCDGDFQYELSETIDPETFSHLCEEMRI
Experimental: From 0.1 to 1 μg of SIR-2.1 and 1 μg of dSir2 were used per deacetylation assay as previously described with modifications (SIR-2.1: 200 μM NAD^+, 10 μM Fluor de Lys, FdL; dSir2: 25 μM NAD^+, 10 μM FdL)^26. STACs were dissolved at 10 mM in dimethylsulfoxide (DMSO) the day of the assay. In vitro fluorescence assay results were read in 96-well microplates (Corning Costar 3693) with a Wallac Victor Multilabel counter (Perkin Elmer, excitation at 360 nm, emission at 450 nm). Drosophila S2 cells were grown in Schneider media with fetal calf serum at 23-28° C., seeded at 9×10^4 cells/well, grown overnight and then exposed to 1 μM TSA, 500 μM polyphenols, and 200 μM FdL for 2 hr. Deacetylation of FdL with lysate from whole cells was determined as described^4. Unless otherwise indicated all initial rate measurements were means of three or more replicates obtained with single incubation times, at which point 5% or less of the substrate initially present was deacetylated.

recombinant human SIRT1 = molecular target: T2, recombinant human SIRT1 (Homo sapiens, UniProt Q96EB6); assay: SIRT1 fluorescent deacetylation assay (p53-382 acetylated peptide); assay type: biochemical
T2 sequence (Q96EB6 1-747): T1 sequence (Q96EB6 1-747)
Experimental: To identify compounds that modulate SIRT1 activity, a number of small molecule libraries were screened using a fluorescent deacetylation assay in 96-well plates^26. The substrate used in the assay was a fluorogenic peptide based on the sequence encompassing the p53-K382 acetylation site, a known target of SIRT1 in vivo^20,21,27. […] The small molecule libraries included analogues of nicotinamide, ε-acetyl lysine, NAD^+, nucleotides, nucleotide analogues and purinergic ligands.
From 0.1 to 1 μg of SIRT1 and 1.5 μg of Sir2 were used per deacetylation assay (in 50 μl total reaction) as previously described^26. SIRT1 assays and certain of those for Sir2 employed the p53-382 acetylated substrate (‘Fluor de Lys-SIRT1’, BIOMOL) rather than FdL.
Themed compound libraries (BIOMOL) were used for primary and secondary screening. Most polyphenol compounds were dissolved at 10 mM in dimethylsulfoxide (DMSO) on the day of the assay. For water soluble compounds and negative controls, 1% v/v DMSO was added to the assay. In vitro fluorescence assay results were read in white ½-volume 96-well microplates (Corning Costar 3693) with a CytoFluor™ II fluorescence plate reader (PerSeptive Biosystems, Ex. 360 nm, Em. 460 nm, gain=85). […] Unless otherwise indicated all initial rate measurements were means of three or more replicates, obtained with single incubation times, at which point 5% or less of the substrate initially present had been deacetylated. Calculation of net fluorescence increases included subtraction of a blank value, which in the case of Sir2 was obtained by omitting the enzyme from the reaction and in the case of SIRT1 by adding an inhibitor (200 μM suramin or 1 mM nicotinamide) to the reaction prior to the acetylated substrate. A number of the polyphenols partially quenched the fluorescence produced in the assay and correction factors were obtained by determining the fluorescence increase due to a 3 μM spike of an FdL deacetylated standard (BIOMOL, catalog number KI-142). All error bars represent the standard error of the mean.
All SIRT1 rate measurements used in the calculation of “Ratio to Control Rate” were obtained with 25 μM NAD^+ and 25 μM p53-382 acetylated peptide substrate were performed as described above and in K. T. Howitz et al. Nature (2003) 425: 191. All ratio data were calculated from experiments in which the total deacetylation in the control reaction was 0.25-1.25 μM peptide or 1-5% of the initial concentration of acetylated peptide.

[3] = test system: AMPK and ACC phosphorylation; assay: AMPK and ACC phosphorylation in mouse embryonic fibroblasts without LKB1; assay type: cell-based; settings: LKB1 -/- cells; 50, 100, 200 μM
Experimental: Blots were stained for the presence of P-ACC, P-AMPK, AMPK, or tubulin as indicated on the left.
Similar results were also observed in mouse embryonic fibroblast (MEFs). […] Cells in the left panel were incubated overnight without serum before harvesting; the cells on the right were not incubated under serum free conditions. […] Tubulin served as a loading control.

Oc1ccc(/C=C/c2cc(O)cc(O)c2)cc1 [Resveratrol, 3,5,4′-Trihydroxy-trans-stilbene]
Activation of SIRT1 [1]: 2.2 fold
Insulin sensitivity (radioactive glucose uptake) [2]: partially rescued
Concentrations that decreased the quantity of cellular fat (NIH3T3 cells): ≥ 25 µM
Concentrations that decreased the quantity of cellular fat (3T3-L1 cells; 10 days of differentiation): ≥ 25 µM
PPARγ expression (3T3-L1 cells; resveratrol-treated cells): did not show an increase; also recorded: marked decrease
Km of SIR-2.1 for the co-substrate NAD+ (recombinant SIR-2.1; 100 μM resveratrol, 10 μM Fluor de Lys): lowered
Stimulation of deacetylation (recombinant SIR-2.1; dose-dependent, maximum): up to 2.5 fold
Concentration at which the activating effect was essentially saturated (recombinant human SIRT1; 25 μM NAD+, 25 μM p53-382 acetylated peptide): 100 λM
Vmax (recombinant human SIRT1; 1 mM p53-382 acetylated peptide, variable NAD+, +100 μM resveratrol (control 1863)): 1749 AFU/min
Vmax (recombinant human SIRT1; 3 mM NAD+, variable p53-382 acetylated peptide, +100 μM resveratrol (control 1107)): 926 AFU/min
AMPK and ACC phosphorylation [3]: upregulation of both AMPK and ACC phosphorylation
